Read-outs that look alike come from different tables or passages of the source.
Legend:
[1] = tested on: HCV infectious virus J399EM; design: method as in PMID 22445328; settings: cited from earlier work; for inhibition against HCV: at 50 μM, previous results
[2] = molecular target: HCV NS5B polymerase; design: method as in PMID 14695815, PMID 15481971, PMID 15149686; settings: HCV NS5B polymerase inhibition, Figures 1 and 2; cited from earlier work
[3] = tested on: HCV infectious virus J399EM; experiment: Anti-HCV assay in authentic HCV infection/replication system (J399EM EGFP reporter virus) in Huh7.5.1 cells; assay type: cell-based, hepatitis C virus (JFH1-derived, genotype 2a); settings: for EC50: Hepatitis C virus, Huh-7.5.1, 72 h; for SI (selectivity index): ratio of CC50 to EC50, Huh7.5.1 cells
Description: (§1) The inhibition of HCV by all synthesized quercetin derivatives was evaluated following a previously reported procedure. All newly synthesized compounds were tested in authentic HCV infection/replication system in the human hepatoma cell lines Huh7.5.1 using mycophenolic acid (MPA) as control compound. The cytotoxicity effect of the test compounds was also evaluated in the same cell line by MTT method. Antiviral effect and cytotoxicity effect were summarized as EC50 and CC50 respectively, as well as the selective index (SI) which is the ratio of CC50 to EC50. The stability of quercetin-3-O-ester compounds were also tested in the same buffer as the antiviral activity assay at 37 °C and the hydrolysate was measured by HPLC.
The biological assays were performed following a previously reported procedure. The Huh7.5.1 cell line and the HCV infectious virus J399EM were kindly provided by Xin-Wen Chen, Wuhan Institute of Virology, Chinese Academy of Sciences. Huh7.5.1 cells were cultured in Dulbecco’s modified Eagle’s medium (DMEM) containing 10% (v/v) fetal bovine serum, 0.5 mg/mL G418, 100 IU/mL penicillin, and […].
J399EM is an infectious HCV virus derived from the JFH1 virus (genotype 2a) by insertion of enhanced green fluorescent protein (EGFP) into the HCV NS5A region. The establishment of the infectious J399EM HCV virus has been described previously. J399EM was propagated in Huh7.5.1 cells. Briefly, Huh7.5.1 cells were infected with J399EM at MOI = 0.1 and cultured for 4 days. Culture supernatant was collected and filtered through a 0.45 μm membrane and stored at −80 °C as virus stock. Virus titer was tested in Huh7.5.1 cells. Stocks were serially diluted, and the foci forming units (FFU) were determined as the number of fluorescent colonies formed in infected Huh7.5.1.
All the compounds were first dissolved in DMSO at 50 mM, and then diluted to various concentrations (50 μM, 25 μM, 12.5 μM, 6.3 μM and 3.1 μM). Approximately 1 × 10^4 Huh7.5.1 cells per well were plated in an opaque 96-well tissue culture plate (Costar 3904). The next day, the medium was replaced by J399EM virus at an MOI of 0.3. Four hours later, the virus inoculum was removed and medium containing different concentrations of compounds was added. After an additional 72 h of incubation, the culture medium was removed and the EGFP autofluorescence was measured by using a […] with excitation at 488 nm and emission at 516 nm. Compounds and controls were performed in duplicate and each experiment repeated independently at least twice.

[4] = Cell viability / cytotoxicity by MTT method; assay type: cell-based; settings: human
Description: as §1
After the EGFP signal was read, cell viability was measured in the same plate by the MTT [3-(4,5-dimethylthiazol-2-yl)-2,5-diphenyltetrazolium bromide; Sigma-Aldrich, St. Louis, MO, USA] method. Briefly, MTT (1 mg/mL) was dissolved in PBS. Cell culture supernatants were removed and replaced with MTT and further cultured for 4 h; cells were then lysed with 10% sodium dodecyl sulfate (SDS), 50% N,N-dimethylformamide, pH 7.2. OD570 values were read. The percentage of cell death was calculated against the control well without compounds.

[5] = tested on: HCV RdRp; design: method as in PMID 25053847; settings: at the concentration of 20 μM in an enzyme assay; cited from earlier work
[6] = Huh7.5.1 cells, MTT, concentration required to reduce cell proliferation by 50%, average of duplicate determinations, read-out: CC50

| Molecule | EC50 [3] [µM] | melting point [°C] | CC50 [4] [µM] | SI (selectivity index) [3] | other results |
| --- | --- | --- | --- | --- | --- |
| COc1cc(-c2oc3cc(O)cc(O)c3c(=O)c2O)ccc1O [isorhamnetin] | – | – | – | – | inhibition against HCV [1]: 47.3% |
| N#Cc1c(Cl)cc(Cl)cc1COc1cccc(C(=O)/C=C(\O)C(=O)O)c1 [Compound 1b] | – | – | – | – | IC50 [2]: 0.045 µM |
| O=C(O)/C(O)=C/C(=O)c1ccccc1 [Compound 1a] | – | – | – | – | IC50 [2]: 5.7 µM |
| O=C(O)c1nc(-c2cccs2)nc(O)c1O [Compound 1d, dihydroxypyrimidine carboxylic acid] | – | – | – | – | IC50 [2]: 2.6 µM |
| O=c1c(O)c(-c2ccc(O)c(O)c2)oc2cc(OCc3cccc(F)c3)cc(O)c12 [Compound 3h, 2-(3,4-Dihydroxyphenyl)-7-((3-fluorobenzyl)oxy)-3,5-dihydroxy-4H-chromen-4-one] | 6.3 ± 0.2 | 243 to 245 | 44.5 ± 3.7 | – | – |
| CC(C)Oc1c(-c2ccc(O)c(O)c2)oc2cc(O)cc(O)c2c1=O [Compound 12b, 2-(3,4-Dihydroxyphenyl)-5,7-dihydroxy-3-isopropoxy-4H-chromen-4-one] | 38.9 ± 2.5 | 259 to 262 | 28.8 ± 2 | 0.7 | – |
| O=c1c(O)c(-c2ccc(O)c(O)c2)oc2cc(OCc3cccc([N+](=O)[O-])c3)cc(O)c12 [Compound 3m, 2-(3,4-Dihydroxyphenyl)-3,5-dihydroxy-7-((3-nitrobenzyl)oxy)-4H-chromen-4-one] | 6.6 ± 1.1 | 264 to 266 | 15 ± 0.1 | 2.3 | – |
| Nc1ccccc1C(=O)Oc1c(-c2ccc(O)c(O)c2)oc2cc(O)cc(O)c2c1=O [Compound 4c, 2-(3,4-Dihydroxyphenyl)-5,7-dihydroxy-4-oxo-4H-chromen-3-yl 2-aminobenzoate] | 12.8 ± 2.8 | 198 to 199 | – | >3.9 | CC50 [4, 6]: > 50 µM |
| COc1ccccc1C(=O)Oc1c(-c2ccc(O)c(O)c2)oc2cc(O)cc(O)c2c1=O [Compound 4d, 2-(3,4-Dihydroxyphenyl)-5,7-dihydroxy-4-oxo-4H-chromen-3-yl 2-methoxybenzoate] | 11.7 ± 1.3 | 183 to 184 | > 50 | >4.3 | – |
| N#Cc1cccc(C(=O)Oc2c(-c3ccc(O)c(O)c3)oc3cc(O)cc(O)c3c2=O)c1 [Compound 4i, 2-(3,4-Dihydroxyphenyl)-5,7-dihydroxy-4-oxo-4H-chromen-3-yl 3-cyanobenzoate] | 13.1 ± 1 | 142 to 143 | > 50 | >3.8 | – |
| O=c1c(O)c(-c2ccc(O)c(O)c2)oc2cc(OCc3cccc(Cl)c3)cc(O)c12 [Compound 3i, 7-((3-Chlorobenzyl)oxy)-2-(3,4-dihydroxyphenyl)-3,5-dihydroxy-4H-chromen-4-one] | 3.8 ± 0.2 | 260 to 261 | 27.2 ± 0.2 | 7.2 | – |
| O=c1c(O)c(-c2ccc(O)cc2)oc2cc(O)cc(O)c12 [kaempferol] | – | – | – | – | inhibition against HCV [1]: 51.9% |
| N#Cc1ccc(C(=O)Oc2c(-c3ccc(O)c(O)c3)oc3cc(O)cc(O)c3c2=O)cc1 [Compound 4n, 2-(3,4-Dihydroxyphenyl)-5,7-dihydroxy-4-oxo-4H-chromen-3-yl 4-cyanobenzoate] | 11.4 ± 2.3 | 196 to 197 | > 50 | >4.4 | – |
| Nc1ccc(C(=O)Oc2c(-c3ccc(O)c(O)c3)oc3cc(O)cc(O)c3c2=O)cc1 [Compound 4l, 2-(3,4-Dihydroxyphenyl)-5,7-dihydroxy-4-oxo-4H-chromen-3-yl 4-aminobenzoate] | 23.8 ± 0.8 | 233 to 234 | > 50 | >2.1 | – |
| O=C(Oc1c(-c2ccc(O)c(O)c2)oc2cc(O)cc(O)c2c1=O)c1cccc(F)c1 [Compound 4f, 2-(3,4-Dihydroxyphenyl)-5,7-dihydroxy-4-oxo-4H-chromen-3-yl 3-fluorobenzoate] | 9 ± 4.5 | 211 to 213 | > 50 | >5.6 | – |
| Cc1ccccc1COc1cc(O)c2c(=O)c(O)c(-c3ccc(O)c(O)c3)oc2c1 [Compound 3e, 2-(3,4-Dihydroxyphenyl)-3,5-dihydroxy-7-((2-methylbenzyl)oxy)-4H-chromen-4-one] | 4.9 ± 0.6 | 241 to 242 | 21.7 ± 1.4 | 4.4 | – |
| O=c1c(O)c(-c2ccc(O)c(O)c2)oc2cc(OCc3ccc([N+](=O)[O-])cc3)cc(O)c12 [Compound 3s, 2-(3,4-Dihydroxyphenyl)-3,5-dihydroxy-7-((4-nitrobenzyl)oxy)-4H-chromen-4-one] | 4.3 ± 0.2 | 253.5 to 254.5 | 19.6 ± 0.2 | 4.5 | – |
| O=c1c(O)c(-c2ccc(O)c(O)c2)oc2cc(OCc3ccccc3Br)cc(O)c12 [Compound 3d, 7-((2-Bromobenzyl)oxy)-2-(3,4-dihydroxyphenyl)-3,5-dihydroxy-4H-chromen-4-one] | 5.5 ± 0.2 | 248 to 249 | 37.4 ± 0.8 | 6.8 | – |
| O=c1c(O)c(-c2ccc(O)c(O)c2)oc2cc(OCc3ccccc3[N+](=O)[O-])cc(O)c12 [Compound 3g, 2-(3,4-Dihydroxyphenyl)-3,5-dihydroxy-7-((2-nitrobenzyl)oxy)-4H-chromen-4-one] | 7 ± 1.1 | 260 to 261 | 14.6 ± 0.5 | 2.1 | – |
| O=c1c(O)c(-c2ccc(O)c(O)c2)oc2cc(OCc3ccccc3Cl)cc(O)c12 [Compound 3c, 7-((2-Chlorobenzyl)oxy)-2-(3,4-dihydroxyphenyl)-3,5-dihydroxy-4H-chromen-4-one] | 4.8 ± 0.1 | 253 to 254 | 36.7 ± 0.7 | 7.7 | – |
| meconic acid [Compound 1c] | – | – | – | – | IC50 [2]: 2.3 µM |
| O=c1c(O)c(-c2ccc(O)c(O)c2)oc2cc(O)cc(O)c12 [Compound 2, quercetin] | – | – | – | >2.5 | inhibition of HCV RdRp [5]: 83.7%; EC50 ([1]; anti-HCV activity of quercetin, earlier work of the authors): 19.8 µM; CC50 [4, 6]: > 50 µM |
